In patent US8828997B2, “2,3-dihydro-1H-imidazo(1,2-a)pyrimidin-5-one derivatives, preparation thereof, and pharmaceutical use thereof” (Sanofi, priority 2009, dated 2014) one finds IC50 and inhibition data, which are given here for eleven molecules.

What all share (assay type): cell-based
Experiment [1] relates to AKT protein phosphorylated on serine 473 (pAKT-S473) in PC3 human prostate carcinoma cells. Kind of experiment: pAKT expression in PC3 human prostate carcinoma cells measured by western blotting (test A). To be noted: PC-3, 1 to 2 h incubation, absolute IC50. Here is the method:
The inhibitory activity of the molecules on AKT phosphorylation is measured either by western blotting using the technique described below, or by the MSD Multi-spot Biomarker detection technique from Meso Scale Discovery also described below.
Study of pAKT Expression in PC3 Human Prostate Carcinoma Cells Measured by Western Blotting (test A):
This test is based on measuring the expression of the AKT protein phosphorylated on serine 473. The phosphorylation of AKT (pAKT) is measured by western blotting in the PC3 human prostate carcinoma line (ATCC CRL-1435), using an antibody that specifically recognises pAKT-S473.
On day 1, the PC3 cells are seeded into 6-well plates (TPP, #92006) at the concentration of 0.8×10^6 cells/well in 1800 μl of DMEM medium (DMEM Gibco #11960-044) containing 10% of foetal calf serum (SVF Gibco, #10500-056) and 1% glutamine (L-Glu Gibco #25030-024), and incubated at 37° C., 5% CO2, overnight.
On day 2, the cells are incubated in the presence or absence of the test products for 1 to 2 hours at 37° C. in the presence of 5% CO2. The molecules, diluted in dimethyl sulphoxide (DMSO Sigma #D2650), are added from a 10-times concentrated stock solution, the final percentage of DMSO being 0.1%. The molecules are tested either at a single concentration of less than or equal to 10 μM, or at increasing concentrations in a range that can extend from less than 1 nM to 10 μM.
After this incubation, the cells are lysed for the preparation of the proteins. After the culture medium has been drawn off, the cells are rinsed with 1 ml of PBS (DPBS Gibco, #14190-094), recovered by scraping in 200 μl of complete HNTG buffer and transferred into a 96-well plate (Greiner #651201), and lysed for 1 h on ice. The HNTG buffer is composed of the following mixture: 50 mM hepes, 150 mM NaCl, 1% triton, 10% glycerol, with extemporaneous addition of one Mini Protease Inhibitor Cocktail tablet (Roche 1836153) and of one Phosphatase Inhibitor Cocktail tablet (Roche104906837001) per 10 ml of buffer.
The lysate is centrifuged for 10 min at 6000 rpm. 155 μl of supernatant are recovered. 150 μl are incubated for denaturation for 5 min at 95° C. in the presence of 4× NuPAGE LDS Sample Buffer diluted 4-fold (InVitrogen ref NP0007) and of 10× NuPAGE Sample Reducing Agent diluted 10-fold (InVitrogen ref NP0009). These samples are then frozen at −20° C. 5 μl are assayed by the microBCA technique according to the technical bulletin of the MicroBCA Protein Assay Kit (Pierce #23235).
For protein separation, 20 μg of proteins are loaded on to a NU-PAGE 4-12% Bis Tris Gel 12 well (InVitrogen ref NP0322BOX) and the migration is carried out for 1 h 30 in 20× NU-PAGE MOPS SDS Running Buffer diluted 20-fold (InVitrogen ref NP0001), at 150 volts.
The gel is then transferred on to an Invitrolon PVDF membrane (Invitrogen #LC2007) permeabilised before and after a few seconds in ethanol (Ethanol Fischer Scientific #E/0600DF/15).
The transfer is carried out in a Biorad tank at 30 volts overnight or at 60 volts for 3 hours, in the presence of 20× NUPAGE Transfer Buffer diluted 20-fold (InVitrogen ref NP0006).
The membrane is then saturated in saturating solution composed of TBS (10× Tris Buffered Saline, Sigma #T5912, diluted 10-fold), 0.1% Tween 20 (Sigma #P5927) and 3% BSA (Bovine Albumin Serum Fraction V, Sigma #A4503) for 6 h after overnight transfer or else for 1 h after transfer for a period of 3 h.
The primary antibodies are diluted to 1/1000 for the anti-phospho AKT-Ser473 antibody (1931-12, rabbit monoclonal, cat#4058 from Cell Signaling Technology Abcam), in saturating solution composed of PBS, 0.1% Tween 20 and 3% BSA, and then shaken overnight at 4° C.
Two rinses for 5 min in washing solution composed of TBS and 0.1% Tween 20 are carried out before hybridisation of the secondary antibodies. […]

For experiment [2], the system named is translocation of the LC3 protein in Hela GFP-LC3 cells. The experiment is described as follows: Translocation of the LC3 protein in Hela human cells measured by image analysis cytometry (test C, autophagy). To be noted: Homo sapiens, HeLa, 2 h, EBSS + 10 μM hydroxychloroquine, cells with LC3 granulations, absolute IC50. The gist of the method: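 HeLa clone stably expressing GFP-LC3, starved in EBSS with 10 μM hydroxychloroquine plus compound (10 nM to 1 μM range, 0.1% DMSO) for 2 h at 37 °C. After PFA fixation and Hoechst staining, LC3 translocation read by image analysis cytometry; IC50 from dose-response curves, mean of 2 independent experiments.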

Experiment [3] has as its system P. falciparum (highly chloroquine-resistant strain Fcm29-Cameroon). Kind of experiment: Antimalarial activity test (radioactive micromethod of Desjardins, tritiated hypoxanthine incorporation). To be noted: Plasmodium falciparum, Erythrocyte, infected human erythrocytes, 48 h. Here is the method: Antimalarial Activity Test
The antimalarial activity tests are carried out according to the radioactive micromethod of Desjardins (R. E. Desjardins, C. J. Canfield, J. D. Haynes, J. D. Chulay, Antimicrob. Agents Chemother., 1979, 16, 710-718). The assays are carried out in 96-well microplates (Test Plates Ref. 92696, Techno Plastic Products Ag, Zollstrasse 155, CH-8219 Trasadingen). The P. falciparum strains are cultured in solutions of RPMI 1640 supplemented with 5% of human serum with a haematocrit at 2% and a blood parasite concentration at 1.5%. For each assay, the parasites are incubated with selected concentrations of drugs for 48 h at 37° C. in a humid atmosphere and at 5% CO2. Artemisinin, artesunate and also chloroquine diphosphate are used as reference molecules. The first dilution of the drug is prepared at 1 mg/ml in dimethyl sulphoxide. The range of dilutions of the successive daughter solutions is also prepared in dimethyl sulphoxide. Each daughter dilution is subsequently diluted to 1/50 in RPMI 1640 supplemented with 5% of human serum, all the dilutions being carried out at 37° C. These dilutions are then added to the parasites in culture in the microplates. After addition of the drug, the parasites are in culture in RPMI 1640 containing 5% of human serum and 1% of dimethyl sulphoxide. The parasite growth is measured by incorporation of tritiated hypoxanthine (added 24 h after the beginning of the exposure to the drug) compared with the incorporation in the absence of drug.
The activity of the product is translated to % inhibition of the growth of P. falciparum (highly chloroquine-resistant strain Fcm29-Cameroon) at 1 μM and 0.1 μM in an in vitro test using infected human erythrocytes.

For orientation: IC50 means the point on the concentration scale where inhibition reaches its midpoint. Consider `CC(c1ccccc1)N1c2nc(N3CCOCC3)cc(=O)n2C[C@@]1(C)C(F)(F)F` (mixture of isomers) [Example 16, (2S)-2-Methyl-7-(morpholin-4-yl)-1-((R) and (5)-1-phenylethyl)-2-(trifluoromethyl)-2,3-dihydroimidazo[1,2-a]pyrimidin-5(1H)-one], for which it took 0.079 µM to reach half-maximal inhibition in experiment [1] (IC50).
With `COc1ccc(CCN2c3nc(N4CCOCC4)cc(=O)n3CC2(C)C(F)(F)F)cc1` (racemic) [Example 2, (R,S)-1-[2-(4-methoxyphenyl)ethyl]-2-methyl-7-(morpholin-4-yl)-2-(trifluoromethyl)-2,3-dihydroimidazo[1,2-a]pyrimidin-5(1H)-one], the values for the IC50 in experiment [1] and in experiment [2] were 0.324 µM and 0.145 µM, respectively.
Consider `CC(Cc1ccccc1)N1c2nc(N3CCOCC3)cc(=O)n2C[C@@]1(C)C(F)(F)F` (single isomer, unassigned) [Example 12, (2S)-2-Methyl-1-((R) or (S)-1-methyl-2-phenylethyl)-7-morpholin-4-yl-2-trifluoromethyl-2,3-dihydro-1H-imidazo[1,2-a]pyrimidin-5-one], for which the IC50 in experiment [1] was determined as 0.077 µM; in experiment [2], 0.194 µM.
As to `CCC(c1ccccc1)N1c2nc(N3CCOCC3)cc(=O)n2C[C@@]1(C)C(F)(F)F` (single isomer, unassigned) [Example 14, (S)-2-Methyl-7-morpholin-4-yl-1-((S) or (R)-1-phenylpropyl)-2-trifluoromethyl-2,3-dihydro-1H-imidazo[1,2-a]pyrimidin-5-one], the IC50 in experiment [1] turned out to be 0.174 µM.
One may read the inhibition as the drop in the measured response relative to a control, in per cent. The molecule `C[C@@]1(C(F)(F)F)Cn2c(nc(N3CCOCC3)cc2=O)N1Cc1ccccc1` [Example 3, (S)-1-Benzyl-2-methyl-7-morpholin-4-yl-2-trifluoromethyl-2,3-dihydro-1H-imidazo[1,2-a]pyrimidin-5-one] came in with an IC50 in experiment [1] of 0.634 µM. The IC50 in experiment [2] amounted to 0.493 µM. Further, in experiment [3], the inhibition at 0.1 µM was 15% and the inhibition at 1 µM was 95%.
In the case of `C[C@@]1(C(F)(F)F)Cn2c(nc(N3CCOCC3)cc2=O)N1CCc1ccccc1` [Example 4, (S)-2-Methyl-7-morpholin-4-yl-1-phenethyl-2-trifluoromethyl-2,3-dihydro-1H-imidazo[1,2-a]pyrimidin-5-one], it took 0.025 µM to reach half-maximal inhibition in experiment [1] (IC50). The IC50 in experiment [2] worked out at 0.107 µM. In experiment [3], the inhibition at 0.1 µM is 54% and the inhibition at 1 µM stood at 97%.
Regarding `C[C@@]1(C(F)(F)F)Cn2c(nc(N3CCOCC3)cc2=O)N1CCCc1ccccc1` [Example 5, (S)-2-Methyl-7-morpholin-4-yl-1-(3-phenylpropyl)-2-trifluoromethyl-2,3-dihydro-1H-imidazo[1,2-a]pyrimidin-5-one], the figures for the IC50 in experiment [1] and in experiment [2] were 0.03 µM and 0.073 µM, respectively.
Taken in the same sequence, the figures for `C[C@@]1(C(F)(F)F)Cn2c(nc(N3CCOCC3)cc2=O)N1CCOc1ccccc1` [Example 6, (S)-2-Methyl-7-morpholin-4-yl-1-(2-phenoxyethyl)-2-trifluoromethyl-2,3-dihydro-1H-imidazo[1,2-a]pyrimidin-5-one] were 1.64 µM and 0.081 µM.
The matching figures for `C[C@@H](CN1c2nc(N3CCOCC3)cc(=O)n2C[C@@]1(C)C(F)(F)F)c1ccccc1` [Example 8, (S)-2-Methyl-7-morpholin-4-yl-1-((R)-2-phenylpropyl)-2-trifluoromethyl-2,3-dihydro-1H-imidazo[1,2-a]pyrimidin-5-one]: 0.015 µM and 0.013 µM.
In experiment [1], `C[C@@]1(C(F)(F)F)Cn2c(nc(N3CCOCC3)cc2=O)N1C[C@@H](O)c1ccccc1` [Example 10] gave an IC50 of 0.016 µM. In addition, in experiment [2], the IC50 was determined as 0.031 µM. For the same molecule, in experiment [3], the inhibition at 0.1 µM is 38% and the inhibition at 1 µM is 97%.
Consider `C[C@@]1(C(F)(F)F)Cn2c(nc(N3CCOCC3)cc2=O)N1CCc1ccc(N2CCOCC2)cc1` [Example 15, (S)-2-Methyl-7-morpholin-4-yl-1-[2-(4-morpholin-4-ylphenyl)ethyl]-2-trifluoromethyl-2,3-dihydro-1H-imidazo[1,2-a]pyrimidin-5-one], for which, in experiment [1], the IC50 turned out to be 0.121 µM. Further, in experiment [2], the IC50 was 0.072 µM. In experiment [3], the inhibition at 0.1 µM was found to be 39% and the inhibition at 1 µM is 101%.
